Experimental findings from patent US20220409590A1, “CHEMOTHERAPY FOR GLIOMA THROUGH NEURONAL CONVERSION” (The Penn State Research Foundation, priority 2019, published 2022) are described below.

This experiment concerns U251 cells. The experiment is described as follows: Reprogramming of U251 cells; doublecortin immunostaining. The format is cell-based, human. How it is done: U251 cells were maintained in minimal essential media (MEM) supplemented with 2 mM glutamine, 1% non-essential amino acids, 1 mM sodium pyruvate, and 10% fetal bovine serum. Fifty thousand cells were seeded on to coverslips into 24-well plates. After 4 days in MEM, the cells were treated with the compound cocktail or dimethyl sulfoxide for another 4 days in Ham's F-12 (F-12) media supplemented with N2, B27 and insulin. The five-compound cocktail, referred to as described above as SLCDS, contained 5 μM SB431542, 0.25 μM LDN193189, 5 μM CHIR99021, 5 μM DAPT, and 40 μM SKL2001. After SLCDS treatment, F-12 media was changed every 4 days for 12 days. Cells were then crosslinked with 4% paraformaldehyde for 12 minutes and washed with Tris buffered saline (TBS). After three 5-minute washes, cells were blocked with 2.5% bovine serum albumin in Tris-buffered saline (TBS) with 0.1% Triton X-100 (TBSTx) for 1 hour. Primary antibody (goat Doublecortin, 1:500 dilution, sc-8066, Santa Cruz) were incubated with fixed cells overnight at 4° C. After three 5-minute washes, the secondary antibody (anti-goat Cy5, 1:1000) was incubated with fixed cells overnight at 4° C. After three 5-minute washes, the cover slip was mounted using mounting media. The fluorescent signal was detected using an ECHO Revolve microscope.

The structures appear in SMILES notation.

For `O=C(NCCCn1ccnc1)c1cc(-c2ccco2)on1` [SKL2001], where the note is “SKL2001 in combination with SB431542, LDN193189, CHIR99021 and DAPT in U251 cells, FIG. 2”, the “dose response of doublecortin expression” value is recorded as “dose-response relationship is established”. For the setting “as evidenced by doublecortin expression”, the “conversion of U251 glioblastoma cells to neuronal cells” value is reported as “efficient conversion”.
